Assay results reported in ChEMBL document CHEMBL1157539, “Thousands of chemical starting points for antimalarial lead identification” (Nature, 2010).

Tested on: Plasmodium falciparum
Assay: GSK_TCMDC: Inhibition of Plasmodium falciparum 3D7 in whole erythrocytes, using parasite LDH activity as an index of growth.
Assay type: functional, organism-based
Conditions: not given

| SMILES | XC50 [µM] |
| --- | --- |
| CCC(CC(NCCCCNC(=O)c1ccc(NC(=O)c2ccc(Cl)cc2)cc1)c1ccccc1)c1ccccc1OC (stereo unspecified) | 0.666 |

Same assay, conditions: Plasmodium falciparum, 3D7

| SMILES | XC50 [µM] |
| --- | --- |
| COc1cc2c(c(OC)c1OC)C[C@H]1c3c(cc4c(c3-2)OCO4)CCN1C | 0.969 |
| COc1ccc2nc(N)nc(C)c2c1 | 0.927 |
| Cc1ccc(C2(CN3CCC(NC(=O)c4cc[nH]n4)CC3)CCCCC2)cc1 | 0.225 |
| CNCCNCc1ccc(-c2cccc(-c3nc4cc(F)ccc4[nH]3)c2)cc1 | 1.13 |
| COC(=O)c1cccc(CNCc2ccc(-c3ccc(-c4nc5ccccc5[nH]4)s3)cc2)c1 | 0.289 |
| Cc1cc(N2CCN(CC3CCN(C)CC3)CC2)nc(Nc2ccc(Br)cc2)n1 | 0.443 |
| Oc1ccc2[nH]c(-c3cccc(F)c3)nc2c1CN1CCCC1 | 0.795 |
| CCCCc1cc(N2CCC(NC(C)=O)C2)nc(Nc2ccc(C)cc2)n1 (stereo unspecified) | 0.866 |
| O=S(=O)(NCCN1CCCC1)c1ccc(-c2cccc(CNC3Cc4ccccc4C3)c2)cc1 | 0.618 |
| O=C(N[C@@H](Cc1ccccc1)C(=O)NCc1cccc2ccccc12)c1ccc(O)c(-c2ccc(Cl)c(Cl)c2)c1 | 0.236 |
| COc1cc(NC(=O)C(c2ccc(Cl)cc2)C(C)C)cc(OC)c1OC (stereo unspecified) | 0.534 |
| O=C(NCC1CCN(Cc2ccc3c(c2)OCCO3)C1)c1cc(-c2cccc(C(F)(F)F)c2)cs1 (stereo unspecified) | 0.978 |
| COc1cc(C(C)C)ccc1N1CCN(CCCCNC(=O)c2ccc(NC(=O)c3ccc(Cl)cc3)cc2)CC1 | 0.576 |
| CN(C)Cc1c(O)ccc2[nH]c(-c3cccc(F)c3)nc12 | 1 |
| O=C(c1ccc(-c2ccc(-c3nc4cc(F)ccc4[nH]3)cc2)cc1)N1CCCCC1CN1CCC(O)C1 (stereo unspecified) | 0.368 |
| O=C(NCCOc1ccccc1)[C@H](Cc1ccccc1)Nc1ccnc(NCC2CCCCC2)n1 | 1.2 |
| Cc1ccc(-c2nc3ccccc3o2)cc1NCc1cc(Cc2ccccc2)ccc1O | 1.03 |
| CCn1ncc(Cl)c1CN(C)S(=O)(=O)c1ccc2ccccc2c1 | 0.818 |
| Cc1ccccc1OCCCN1CCN(CC(c2ccc(F)cc2)N2CCN(C(C)C)CC2)CC1 (stereo unspecified) | 1.41 |
| O=C(/C=C/c1ccc(Cl)c(Cl)c1)N1CCC(CN2CCC(c3c[nH]c4cc(C(F)(F)F)ccc34)CC2)CC1 | 0.796 |
| O=C(C=Cc1ccc(Br)cc1)NC1CCC(CN2CCC(c3c[nH]c4ccccc34)CC2)CC1 (stereo unspecified) | 0.682 |
| CCCNc1ccc(-c2cc(C(N)=O)c3[nH]cc(C4CCN(S(=O)(=O)CC)CC4)c3c2)cn1 | 0.817 |
| CC(O)C1CCCCN1C(=O)c1cccc(-c2ccc(-c3nc4ccccc4[nH]3)s2)c1 (stereo unspecified) | 0.798 |
| CC(C)Sc1nc(-c2ccccc2)nc2c1COC(C)(C)C2 | 0.857 |

| SMILES | XC50 [µM] |
| --- | --- |
| O=S(=O)(c1csc2ccccc12)N(CCC(O)(C(F)(F)F)C(F)(F)F)Cc1cccc(O)c1 | 0.36 |
| COCCOc1cc(C)c(C2CCN(CCCCNC(=O)c3ccc(NC(=O)c4ccc(Cl)cc4)cc3)CC2)cc1C | 0.951 |
| Cc1ccc([S+]([O-])Cc2ccc(Cl)cc2)cc1 (stereo unspecified) | 0.196 |
| Cc1cc(N[C@@H](Cc2ccccc2)C(=O)NCCOc2ccccc2)nc(NCCOc2ccccc2)n1 | 1.36 |
| Cn1nc(-c2cccc(CNC3CCc4ccccc43)c2)c2cnc(NCCCN3CCCC3)nc21 (stereo unspecified) | 0.877 |
| O=C(NC1CC1)c1ccc(N2CCCCN2CCc2ccccc2)c(C(F)(F)F)c1 | 0.622 |
| CCC(CC(NCCCCNC(=O)c1ccc(NC(=O)c2ccc(Cl)cc2)cc1)c1ccccc1)c1ccccc1OC (stereo unspecified) | 0.792 |
| CC(C)C[C@H](NC(=O)c1cccc(F)c1)C(=O)N[C@H](/C=N/NC(=O)c1ccccc1)CCc1ccccc1 | 0.715 |
| COc1ccc2c(N/N=C/c3cccc([N+](=O)[O-])c3)ccnc2c1 | 0.846 |
| CC(=O)Nc1cccc(NC(=O)CSc2ccc(-c3nc4ccccc4[nH]3)cn2)c1 | 0.559 |
| CCCCCN1CCCC1CNS(=O)(=O)c1cccc(C(=O)Nc2cccc(C#N)c2)c1 (stereo unspecified) | 0.978 |
| Cc1cccc2nc(-c3ccc(-c4ccc(CNCCCN5CCCC5=O)cc4)s3)[nH]c12 | 0.749 |
| N=C(NCCc1ccc(Cl)c(Cl)c1)c1ccc2ccccc2c1 | 0.514 |
| CC1(CCc2ccccc2)N=C(Nc2ccc(Cl)cc2)N=C(N)C1c1ccc(Cl)c(Cl)c1 (stereo unspecified) | 0.221 |
| CC(C)n1ncc2c(C(=O)Nc3ccc(C#N)c(Cl)c3)cc(C3CC3)nc21 | 0.962 |
| O=C(NC1CCN(Cc2ccccc2)CC1)c1cccc(-c2cc3cc(Cl)c(Cl)cc3[nH]2)c1 | 0.725 |
| COc1ccc2nccc(N3CCCN(CCNS(=O)(=O)c4ccc5c(c4)NC(=O)CS5)CC3)c2n1 | 0.824 |
| Cc1ccc(CN2CCN(c3cc4c(cc3Cl)CCN4C(=O)Cc3ccc(NC(=O)c4ccc(C(F)(F)F)cc4)cc3)CC2)cc1 | 0.935 |
| N#Cc1ccc2c(c1)CCN(CCC1CCC(NC(=O)/C=C/c3cnc4ccccc4c3)CC1)CC2 (stereo unspecified) | 1.21 |
| Cc1ccc(CC(C)NCC(O)c2cccc(C#N)c2)cc1 (stereo unspecified) | 0.944 |
| CCCCc1ccccc1NS(=O)(=O)c1ccc(OC)c(N2CCNCC2)c1 | 1.38 |
| Nc1nc(N)c2c(Cc3ccc(Br)cc3)cccc2n1 | 0.775 |
| CCCCC([C@@H](Cc1ccc2ccccc2c1)C(=O)N[C@H](C(=O)NC)C(C)(C)C)N(O)C=O (stereo partly specified) | 0.142 |
| Cc1cc(Nc2cc(Cl)cc(Cl)c2)nc(N)n1 | 1.14 |

| SMILES | XC50 [µM] |
| --- | --- |
| N#Cc1cc(C(=O)c2cc(Cl)ccc2O)cn(-c2cccc(C(F)(F)F)c2)c1=O | 1.13 |
| COc1ccc(-c2cccc(NC(=O)c3cccc(Cl)c3)c2)cc1CN1CCC(O)CC1 | 0.791 |
| CC(C)CCN1C(=O)C(NC(=O)Oc2ccccc2)C(=O)N(CC23CC4CC(CC(C4)C2)C3)c2ccccc21 (stereo unspecified) | 0.752 |
| COc1ccc(C2C(C(=O)Nc3ccccc3)=C(C)Nc3c(C(=O)Nc4ccccc4)cnn32)cc1 (stereo unspecified) | 1.31 |
| O=C(NC1CCC(CN2CCC(c3c[nH]c4ccccc34)CC2)CC1)[C@H]1Cc2ccccc2CN1 (stereo partly specified) | 0.949 |
| CCCNC[C@@H](O)[C@H](Cc1ccccc1)NC(=O)c1cc2c3c(c1)c(CC)cn3CCS(=O)(=O)N2C | 0.101 |
| CCOc1cc(C(=O)N[C@@H](Cc2ccccc2)[C@H](O)CNCc2cc(OC)cc(OC)c2)cc(N2CCCS2(=O)=O)c1 | 0.748 |
| COc1ccc(-c2cc(C(=O)Nc3ccc4[nH]c(-c5ccccc5)nc4c3)[nH]n2)cc1 | 0.696 |
| CCCCCC(=O)N1CCOC(CCN2CCC(c3ccccc3)CC2)(c2ccc(Cl)c(Cl)c2)C1 (stereo unspecified) | 1.12 |
| O=C1c2ccccc2CN1CCCN1CCC(Oc2ccc(F)cc2)CC1 | 1.21 |
| CCCCCCN1CCC(CNCc2cccc(Cl)c2)CC1 | 1.22 |
| O=C(/C=C/c1cc(F)c(F)cc1F)N1CCC(CN2CCC(c3c[nH]c4ccccc34)CC2)CC1 | 0.995 |
| COc1c(F)cc(CC(C)NCC(O)c2cccc(Cl)c2)cc1F (stereo unspecified) | 1.16 |
| CC(CN1CCN(C)CC1)C(=O)Nc1cccc(-c2ccc(-c3nc4cc(C(F)(F)F)ccc4[nH]3)cc2)c1 (stereo unspecified) | 0.607 |
| Cc1cc(N2CCCC2)nc(Nc2ccc(NC(=O)c3cccc(F)c3)cc2)n1 | 0.182 |
| Cc1cccc2nc(-c3ccc(-c4ccc(CN5CC(C)OC(C)C5)cc4)cc3)[nH]c12 (stereo unspecified) | 0.523 |
| CN(C)Cc1ccc2cc(NC(=O)c3ccc(-c4ccc(Cl)cc4)cc3)ccc2c1 | 1.34 |
| Cc1cccc(CN2CCC(CNC(=O)c3cc4c(-c5ccccc5F)nn(C)c4s3)CC2)c1 | 1.09 |
| Cc1ccc(Cn2ncc(N3CC(C)NC(C)C3)c(Cl)c2=O)cc1NC(=O)Nc1ccc(-c2ccccc2)cc1 (stereo unspecified) | 0.739 |
| Cc1cccc(Cl)c1S(=O)(=O)N1CCCCC(c2ccc(C(F)(F)F)cc2)=N1 | 0.216 |
| O=C(Nc1cccc(-c2ccc(-c3nc4ccccc4[nH]3)cc2)c1)Nc1ccc(F)c(F)c1F | 0.238 |
| CC1(C)NC(N)=NC(=N)N1OCCCSc1ccccc1 | 0.0032 |
